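Exposure lasted 48 hours, with cells grown in 96-well plates and compounds tested at five concentrations. GI50 is the concentration that inhibits growth by half. Definition used: TGI = concentration required for complete inhibition of growth.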
Tests used:
Assay in all cases: inhibition of tumour cell growth, NCI panel, 48 h
786-0 renal = test system: 786-0 renal
A498 renal = test system: A498 renal
A549 NSCLC = test system: A549 NSCLC
ACHN renal = test system: ACHN renal
BT-549 breast = test system: BT-549 breast
CAKI-1 renal = test system: CAKI-1 renal
CCRF-CEM leukemia = test system: CCRF-CEM leukemia
COLO 205 colon = test system: COLO 205 colon
DU-145 prostate = test system: DU-145 prostate
EKVX NSCLC = test system: EKVX NSCLC
HCC-2998 colon = test system: HCC-2998 colon
HCT-116 colon = test system: HCT-116 colon
HCT-15 colon = test system: HCT-15 colon
HL-60(TB) leukemia = test system: HL-60(TB) leukemia
HOP-62 NSCLC = test system: HOP-62 NSCLC
HOP-92 NSCLC = test system: HOP-92 NSCLC
HS 578T breast = test system: HS 578T breast
HT29 colon = test system: HT29 colon
IGROV1 ovarian = test system: IGROV1 ovarian
K-562 leukemia = test system: K-562 leukemia
LOX IMVI melanoma = test system: LOX IMVI melanoma
M14 melanoma = test system: M14 melanoma
MCF7 breast = test system: MCF7 breast
MDA-MB-231 breast = test system: MDA-MB-231 breast
MOLT-4 leukemia = test system: MOLT-4 leukemia
NCI-H226 lung = test system: NCI-H226 lung
NCI-H23 lung = test system: NCI-H23 lung
NCI-H460 lung = test system: NCI-H460 lung
NCI-H522 lung = test system: NCI-H522 lung
NCI/ADR-RES ovarian = test system: NCI/ADR-RES ovarian
OVCAR-3 ovarian = test system: OVCAR-3 ovarian
OVCAR-4 ovarian = test system: OVCAR-4 ovarian
OVCAR-5 ovarian = test system: OVCAR-5 ovarian
OVCAR-8 ovarian = test system: OVCAR-8 ovarian
PC-3 prostate = test system: PC-3 prostate
RPMI-8226 leukemia = test system: RPMI-8226 leukemia
RXF 393 renal = test system: RXF 393 renal
SF-268 CNS = test system: SF-268 CNS
SF-295 CNS = test system: SF-295 CNS
SF-539 CNS = test system: SF-539 CNS
SK-MEL-2 melanoma = test system: SK-MEL-2 melanoma
SK-MEL-28 melanoma = test system: SK-MEL-28 melanoma
SK-MEL-5 melanoma = test system: SK-MEL-5 melanoma
SK-OV-3 ovarian = test system: SK-OV-3 ovarian
SN12C renal = test system: SN12C renal
SNB-19 CNS = test system: SNB-19 CNS
SNB-75 CNS = test system: SNB-75 CNS
SR leukemia = test system: SR leukemia
SW-620 colon = test system: SW-620 colon
T-47D breast = test system: T-47D breast
TK-10 renal = test system: TK-10 renal
U251 CNS = test system: U251 CNS
UACC-257 melanoma = test system: UACC-257 melanoma
UACC-62 melanoma = test system: UACC-62 melanoma
UO-31 renal = test system: UO-31 renal
KM12 colon = test system: KM12 colon
MALME-3M melanoma = test system: MALME-3M melanoma
MDA-MB-435 = test system: MDA-MB-435

## COc1cc2c(cc1OCCCCOc1ccc(-c3nc4ccccc4s3)cc1)N=C[C@@H]1CCCN1C2=O
786-0 renal
  GI50: 0.58 µM
  TGI: 1.16 µM
A498 renal
  GI50: 1.99 µM
  TGI: 4.34 µM
A549 NSCLC
  GI50: 2.8 µM
  TGI: 8.15 µM
ACHN renal
  GI50: 0.742 µM
  TGI: 2.59 µM
BT-549 breast
  GI50: 0.93 µM
  TGI: 2.38 µM
CAKI-1 renal
  GI50: 0.769 µM
  TGI: 10.8 µM
CCRF-CEM leukemia
  GI50: 0.456 µM
  TGI: 2.38 µM
COLO 205 colon
  GI50: 0.655 µM
  TGI: 1.76 µM
DU-145 prostate
  GI50: 0.426 µM
  TGI: 2.05 µM
EKVX NSCLC
  GI50: 2.56 µM
  TGI: 6.39 µM
HCC-2998 colon
  GI50: 0.82 µM
  TGI: 2.28 µM
HCT-116 colon
  GI50: 0.511 µM
  TGI: 1.62 µM
HCT-15 colon
  GI50: 1.08 µM
  TGI: 3.89 µM
HL-60(TB) leukemia
  GI50: 0.384 µM
  TGI: 16.5 µM
HOP-62 NSCLC
  GI50: 0.745 µM
  TGI: 2.14 µM
HOP-92 NSCLC
  GI50: 0.335 µM
  TGI: 0.957 µM
HS 578T breast
  GI50: 0.891 µM
  TGI: 4.43 µM
HT29 colon
  GI50: 0.819 µM
  TGI: 15.8 µM
IGROV1 ovarian
  GI50: 1.28 µM
  TGI: 6.08 µM
K-562 leukemia
  GI50: 0.301 µM
  TGI: 4.91 µM
LOX IMVI melanoma
  GI50: 0.73 µM
  TGI: 1.96 µM
M14 melanoma
  GI50: 0.908 µM
  TGI: 2.39 µM
MCF7 breast
  GI50: 0.625 µM
  TGI: 4.34 µM
MDA-MB-231 breast
  GI50: 0.573 µM
  TGI: 2.04 µM
MOLT-4 leukemia
  GI50: 0.924 µM
  TGI: 3.86 µM
NCI-H226 lung
  GI50: 1.71 µM
  TGI: 3.89 µM
NCI-H23 lung
  GI50: 1.15 µM
  TGI: 3.56 µM
NCI-H460 lung
  GI50: 1.56 µM
  TGI: 4.06 µM
NCI-H522 lung
  GI50: 0.565 µM
  TGI: 1.93 µM
NCI/ADR-RES ovarian
  GI50: 1.49 µM
  TGI: 5.17 µM
OVCAR-3 ovarian
  GI50: 0.477 µM
  TGI: 3.47 µM
OVCAR-4 ovarian
  GI50: 1.24 µM
  TGI: 9.02 µM
OVCAR-5 ovarian
  GI50: 0.861 µM
  TGI: 3.86 µM
OVCAR-8 ovarian
  GI50: 1.19 µM
  TGI: 7.98 µM
PC-3 prostate
  GI50: 0.63 µM
  TGI: 2.11 µM
RPMI-8226 leukemia
  GI50: 0.337 µM
  TGI: 1.42 µM
RXF 393 renal
  GI50: 0.19 µM
  TGI: 0.443 µM
SF-268 CNS
  GI50: 0.998 µM
  TGI: 3.58 µM
SF-295 CNS
  GI50: 1.22 µM
  TGI: 8.81 µM
SF-539 CNS
  GI50: 0.768 µM
  TGI: 2 µM
SK-MEL-2 melanoma
  GI50: 0.393 µM
  TGI: 1.83 µM
SK-MEL-28 melanoma
  GI50: 2.18 µM
  TGI: 4.95 µM
SK-MEL-5 melanoma
  GI50: 0.667 µM
  TGI: 1.85 µM
SK-OV-3 ovarian
  GI50: 1.92 µM
  TGI: 5.08 µM
SN12C renal
  GI50: 1.13 µM
  TGI: 4 µM
SNB-19 CNS
  GI50: 1.52 µM
  TGI: 3.04 µM
SNB-75 CNS
  GI50: 1.26 µM
  TGI: 2.63 µM
SR leukemia
  GI50: 0.276 µM
  TGI: 1.12 µM
SW-620 colon
  GI50: 0.426 µM
  TGI: 1.77 µM
T-47D breast
  GI50: 0.339 µM
  TGI: 1.45 µM
TK-10 renal
  GI50: 1.21 µM
  TGI: 5.17 µM
U251 CNS
  GI50: 0.534 µM
  TGI: 1.85 µM
UACC-257 melanoma
  GI50: 2.63 µM
  TGI: 7.06 µM
UACC-62 melanoma
  GI50: 1.14 µM
  TGI: 2.69 µM
UO-31 renal
  GI50: 0.581 µM
  TGI: 2.43 µM

## COC1=C(Br)C(=O)C2=C(C1=O)C1C3=C(C(=O)C=CC3=O)C2c2ccccc21 (stereo not given)
786-0 renal
  GI50: 14.9 µM
  TGI: 36.1 µM
A549 NSCLC
  GI50: 42.1 µM
  TGI: > 100 µM
ACHN renal
  GI50: 14.8 µM
  TGI: 34.5 µM
BT-549 breast
  GI50: 16.8 µM
  TGI: 38.3 µM
CAKI-1 renal
  GI50: 15.6 µM
  TGI: 38.4 µM
CCRF-CEM leukemia
  GI50: 3.16 µM
  TGI: > 100 µM
COLO 205 colon
  GI50: 12.3 µM
  TGI: 44.9 µM
DU-145 prostate
  GI50: 21.4 µM
  TGI: 53.8 µM
EKVX NSCLC
  GI50: 5.81 µM
  TGI: 22.2 µM
HCC-2998 colon
  GI50: 0.565 µM
  TGI: 19.5 µM
HCT-116 colon
  GI50: 5.91 µM
  TGI: > 100 µM
HCT-15 colon
  GI50: 20 µM
  TGI: 42.6 µM
HOP-62 NSCLC
  GI50: 25.9 µM
  TGI: 47.6 µM
HOP-92 NSCLC
  GI50: 2.51 µM
  TGI: 11.6 µM
HS 578T breast
  GI50: 4.82 µM
  TGI: > 100 µM
HT29 colon
  GI50: 31.9 µM
  TGI: > 100 µM
IGROV1 ovarian
  GI50: 9.4 µM
  TGI: 45.1 µM
K-562 leukemia
  GI50: 4.66 µM
  TGI: > 100 µM
KM12 colon
  GI50: 12.4 µM
  TGI: 32.1 µM
LOX IMVI melanoma
  GI50: 4.91 µM
  TGI: 26 µM
M14 melanoma
  GI50: 33.4 µM
  TGI: 80.4 µM
MALME-3M melanoma
  GI50: 27.8 µM
  TGI: 56.8 µM
MCF7 breast
  GI50: 22.7 µM
  TGI: > 100 µM
MDA-MB-231 breast
  GI50: 8.15 µM
  TGI: 66.1 µM
MDA-MB-435
  GI50: 18.2 µM
  TGI: 36.3 µM
MOLT-4 leukemia
  GI50: 4.99 µM
  TGI: > 100 µM
NCI-H226 lung
  GI50: 21 µM
  TGI: 46.4 µM
NCI-H23 lung
  GI50: 17.3 µM
  TGI: 48.5 µM
NCI-H460 lung
  GI50: 33.3 µM
  TGI: > 100 µM
NCI-H522 lung
  GI50: 3.26 µM
  TGI: 14.4 µM
NCI/ADR-RES ovarian
  GI50: 18.8 µM
  TGI: 61.5 µM
OVCAR-3 ovarian
  GI50: 5.43 µM
  TGI: 28.3 µM
OVCAR-4 ovarian
  GI50: 13.7 µM
  TGI: 63.7 µM
OVCAR-5 ovarian
  GI50: 22.3 µM
  TGI: 98.6 µM
OVCAR-8 ovarian
  GI50: 24.3 µM
  TGI: > 100 µM
PC-3 prostate
  GI50: 4.35 µM
  TGI: 25.6 µM
RPMI-8226 leukemia
  GI50: 4.04 µM
  TGI: > 100 µM
RXF 393 renal
  GI50: 18.3 µM
  TGI: 37.5 µM
SF-268 CNS
  GI50: 18.2 µM
  TGI: 59.6 µM
SF-295 CNS
  GI50: 24.1 µM
  TGI: 48.9 µM
SF-539 CNS
  GI50: 2.92 µM
  TGI: 8.79 µM
SK-MEL-2 melanoma
  GI50: 20.6 µM
  TGI: 61.2 µM
SK-MEL-28 melanoma
  GI50: 30.7 µM
  TGI: > 100 µM
SK-MEL-5 melanoma
  GI50: 16 µM
  TGI: 48.9 µM
SK-OV-3 ovarian
  GI50: 45.6 µM
  TGI: > 100 µM
SN12C renal
  GI50: 11 µM
  TGI: 32.2 µM
SNB-19 CNS
  GI50: 16.6 µM
  TGI: 43.3 µM
SNB-75 CNS
  GI50: 19.4 µM
  TGI: 64.4 µM
SW-620 colon
  GI50: 4.56 µM
  TGI: > 100 µM
T-47D breast
  GI50: 3.16 µM
  TGI: 21.7 µM
TK-10 renal
  GI50: 23.8 µM
  TGI: 43.5 µM
U251 CNS
  GI50: 4.31 µM
  TGI: 22.2 µM
UACC-257 melanoma
  GI50: 38.2 µM
  TGI: > 100 µM
UACC-62 melanoma
  GI50: 11.2 µM
  TGI: 27.8 µM
UO-31 renal
  GI50: 12.2 µM
  TGI: 41.2 µM
